Laboratory results taken from ChEMBL document CHEMBL1156824, “Physicochemical space for optimum oral bioavailability: contribution of human intestinal absorption and first-pass elimination” (J Med Chem, 2010).

Assays:
[1] = tested on: Plasma; assay: Fraction unbound in human plasma
[2] = organism: Homo sapiens; assay: Hepatic clearance in human; settings: in vivo
[3] = (§1) Volume of distribution at steady state in human; settings: in vivo
[4] = organism: Homo sapiens; assay: Fraction escaping gut-wall elimination in human; settings: in vivo
[5] = organism: Homo sapiens; assay: Fraction escaping hepatic elimination in human; settings: in vivo
[6] = tested on: Homo sapiens; assay: Oral bioavailability in human; settings: in vivo
[7] = organism: Homo sapiens; assay: Fraction absorbed in human; settings: in vivo
[8] = organism: Homo sapiens; settings: in vivo
[9] = organism: Homo sapiens; assay: in vitro; settings: plasma
[10] = clinical; settings: human, in vivo
[11] = clinical; settings: human, in vivo; remark: listed apart in the source
[12] = organism: Homo sapiens; assay: as §1; settings: in vivo

COc1ccc(Cl)cc1C(=O)NCCc1ccc(S(=O)(=O)NC(=O)NC2CCCCC2)cc1 [GLYBURIDE]
Fu [1]: 0.021 | CL [2]: 0.8 mL/min/kg | Vd [3]: 0.08 L/kg

CCCc1cc(=O)[nH]c(=S)[nH]1 [PROPYLTHIOURACIL]
Fu [1]: 0.18 | CL [2]: 3.1 mL/min/kg | Fg [4]: 0.97 | Fh [5]: 0.87

CCc1cccc2cc(C(O)CNC(C)(C)C)oc12 (centres undefined) [BUFURALOL]
CL [2]: 8.9 mL/min/kg | F_fraction [6]: 0.43 | Fa [7]: 1 | Fg [4]: 0.7 | Fh [5]: 0.61 | CL_renal [8]: 0 mL/min/kg | fraction unbound [9]: 0.19

Cc1onc(-c2ccccc2Cl)c1C(=O)N[C@@H]1C(=O)N2[C@@H]1SC(C)(C)[C@@H]2C(=O)O [CLOXACILLIN]
CL [2]: 0.6 mL/min/kg | clearance [10]: 1.6 mL/min/kg | CL renal [11]: 1 mL/min/kg

C[C@@H](O)[C@H]1C(=O)N2C(C(=O)O)=C(SCCN=CN)C[C@H]12 [IMIPENEM ANHYDROUS]
CL [2]: 1.5 mL/min/kg | clearance [10]: 3 mL/min/kg | CL renal [11]: 1.5 mL/min/kg

CO/N=C(\C(=O)N[C@@H]1C(=O)N2C(C(=O)O)=C(C)CS[C@H]12)c1csc(N)n1
CL [2]: 0.4 mL/min/kg | fraction unbound [9]: 0.78

C[C@]12C=CC(=O)C=C1CC[C@@H]1[C@@H]2[C@@H](O)C[C@@]2(C)[C@H]1CC[C@]2(O)C(=O)CO [PREDNISOLONE]
Fu [1]: 0.25 | CL [2]: 2.3 mL/min/kg

O=C1NC(=O)C(c2ccccc2)(c2ccccc2)N1 [PHENYTOIN]
CL [2]: 0.4 mL/min/kg | Fh [5]: 0.98 | clearance [10]: 0.37 mL/min/kg | CL renal [11]: 0.0074 mL/min/kg

CCCCC(=O)N(Cc1ccc(-c2ccccc2-c2nnn[nH]2)cc1)[C@H](C(=O)O)C(C)C
Fu [1]: 0.04 | CL [2]: 0.3 mL/min/kg | CL renal [11]: 0.1 mL/min/kg

CC(C)c1nc(CN(C)C(=O)N[C@H](C(=O)N[C@@H](Cc2ccccc2)C[C@H](O)[C@H](Cc2ccccc2)NC(=O)OCc2cncs2)C(C)C)cs1 [RITONAVIR]
CL [2]: 1.2 mL/min/kg | clearance [10]: 1.2 mL/min/kg | CL renal [11]: 0.042 mL/min/kg

CNC[C@H](O)CC12CCC(c3ccccc31)c1ccccc12 [LEVOPROTILINE]
CL [2]: 12.1 mL/min/kg | clearance [10]: 12.3 mL/min/kg | CL renal [11]: 0.2 mL/min/kg

CCOC(=O)C1(c2ccccc2)CCC=CC1N(C)C (centres undefined) [TILIDINE]
CL [2]: 15.7 mL/min/kg | Vd [3]: 4 L/kg | fraction unbound [9]: 0.21 | CL renal [11]: 0.3 mL/min/kg

O=C1C(O)=C([C@H]2CC[C@H](c3ccc(Cl)cc3)CC2)C(=O)c2ccccc21 [ATOVAQUONE]
Fu [1]: 0.001 | CL [2]: 0.2 mL/min/kg | Vd [3]: 0.6 L/kg

GENTAMICIN
Fu [1]: 1 | CL [2]: 0.3 mL/min/kg

CC(C)N(CCC(C(N)=O)(c1ccccc1)c1ccccn1)C(C)C (centres undefined) [DISOPYRAMIDE]
Fu [1]: 0.16 | CL [2]: 0.4 mL/min/kg

O=P1(N(CCCl)CCCl)NCCCO1 (centres undefined) [CYCLOPHOSPHAMIDE ANHYDROUS]
CL [2]: 1 mL/min/kg | F_fraction [6]: 0.74 | Fa [7]: 0.9 | Fg [4]: 0.86 | Fh [5]: 0.96 | CL renal [11]: 0.1 mL/min/kg

Nc1nnc(-c2cccc(Cl)c2Cl)c(N)n1 [LAMOTRIGINE]
CL [2]: 0.6 mL/min/kg | F_fraction [6]: 0.98 | clearance [10]: 0.6 mL/min/kg | CL renal [11]: 0.042 mL/min/kg

Cc1cccc(C)c1NC(=O)NCCCNC(C)C
CL [2]: 2.2 mL/min/kg | fraction unbound [9]: 0.86

CCCCCN(CCCOC)C(=O)C(CCC(=O)O)NC(=O)c1ccc(Cl)c(Cl)c1 (centres undefined) [LOXIGLUMIDE]
CL [2]: 1 mL/min/kg | clearance [10]: 1 mL/min/kg | CL renal [11]: 0.022 mL/min/kg

COCc1c(C(C)C)nc(C(C)C)c(/C=C/[C@@H](O)C[C@@H](O)CC(=O)O)c1-c1ccc(F)cc1 [CERIVASTATIN]
CL [2]: 2.9 mL/min/kg | CL_renal [8]: 0 mL/min/kg

Cc1ncc2n1-c1ccc(Cl)cc1C(c1ccccc1F)=NC2 [MIDAZOLAM]
CL [2]: 5.3 mL/min/kg | F_fraction [6]: 0.38 | CL_renal [8]: 0 mL/min/kg

CO/N=C(\C(=O)N[C@@H]1C(=O)N2C(C(=O)O)=C(CSc3nc(=O)c(=O)[nH]n3C)CS[C@H]12)c1csc(N)n1 [CEFTRIAXONE]
Fu [1]: 0.052 | CL [2]: 0.1 mL/min/kg | CL renal [11]: 0.1 mL/min/kg

C[C@@H]1[C@H](O)[C@@H](C)/C=C/C=C/C=C/C=C/C=C/C=C/C=C/[C@H](O[C@@H]2O[C@H](C)[C@@H](O)[C@H](N)[C@@H]2O)C[C@@H]2O[C@](O)(C[C@@H](O)C[C@@H](O)[C@H](O)CC[C@@H](O)C[C@@H](O)CC(=O)O[C@H]1C)C[C@H](O)[C@H]2C(=O)O [AMPHOTERICIN B]
CL [2]: 0.4 mL/min/kg | clearance [10]: 0.46 mL/min/kg | CL renal [11]: 0.0138 mL/min/kg

COc1cc([C@@H]2c3cc4c(cc3[C@@H](O[C@@H]3O[C@@H]5CO[C@@H](C)O[C@H]5[C@H](O)[C@H]3O)[C@H]3COC(=O)[C@H]23)OCO4)cc(OC)c1O [ETOPOSIDE]
CL [2]: 0.3 mL/min/kg | Fh [5]: 0.99 | clearance [10]: 0.5 mL/min/kg | CL renal [11]: 0.2 mL/min/kg

c1ccc2c(c1)OCC(C1=NCCN1)O2 (centres undefined) [IDAZOXAN]
CL [2]: 10 mL/min/kg | clearance [10]: 10 mL/min/kg

COc1ccnc(C[S+]([O-])c2nc3ccc(OC(F)F)cc3[nH]2)c1OC (centres undefined) [PANTOPRAZOLE]
CL [2]: 2.2 mL/min/kg | Vdss [12]: 6.3 L/kg

CC(C)(C)NCC(O)COc1cccc2c1CC(O)C(O)C2 (centres undefined) [NADOLOL]
Fu [1]: 0.14 | CL [2]: 1.1 mL/min/kg

COc1ccc2c(c1)c(CC(=O)O)c(C)n2C(=O)c1ccc(Cl)cc1 [INDOMETHACIN]
Fu [1]: 0.01 | CL [2]: 1.1 mL/min/kg

O=C(O)c1cc(/N=N/c2ccc(S(=O)(=O)Nc3ccccn3)cc2)ccc1O [SULFASALAZINE]
CL [2]: 0.2 mL/min/kg | clearance [10]: 0.24 mL/min/kg | CL renal [11]: 0.1 mL/min/kg

CNC(=O)Oc1ccc2c(c1)[C@]1(C)CCN(C)[C@@H]1N2C [PHYSOSTIGMINE]
CL [2]: 5.5 mL/min/kg | F_fraction [6]: 0.01 | Vd [3]: 0.66 L/kg | clearance [10]: 22 mL/min/kg | CL renal [11]: 16.5 mL/min/kg
